# In US12404261B2, “Compounds and compositions for treating conditions associated with cGAS” (Novartis AG, priority 2020, dated 2025):
# Target: human truncated cGAS enzyme (147-522 human cGAS) (Homo sapiens (Human), UniProt Q8N884)
# Experiment: Quantification of cGAS protein inhibition (cGAMP formation measured by LC-MS/MS)
# Format: biochemical
# Settings: reported for the potential mixture in solution of co-existing tautomers and/or racemates
# Procedure: A reagent buffer was prepared in filtered and autoclaved water according to the following: • 50 mM Tris-buffer pH 7.5 (1 M Tris-buffer pH 7.5, Invitrogen, Cat. No. 15567-027); • 50 mM NaCl (5 M NaCl, Sodium Chloride Solution, Sigma, 59222C-); • 5 mM MgCl2 (1 M MgCl2, Sigma, M1028); • 0.1 mM ZnCl2 (Zinc Chloride [7646-85-7], powder, Cell Culture Tested, Sigma, Z-0152); and • 0.001% Tween 20 (TWEEN 20, Sigma Aldrich, P1379-).
# A buffer for the cGAS enzyme was prepared in filtered and autoclaved water according to the following: • 50 mM Tris-buffer pH 7.5; • 5 mM MgCl2; and • 0.001% Tween 20.
# Compounds were dispensed to a […]. The human truncated cGAS enzyme (4.2 mg/mL 147-522 human cGAS, MW 43,909 g/mol) was stored in 50 mM Tris, 500 mM NaCl, 5% (v/v) glycerol at pH 8 and diluted in the cGAS buffer enzyme shortly before use. The enzyme solution was transferred into the reagent buffer to give a final concentration of 30 nM. The reaction was started by mixing the enzyme with ISD (a 45 bp double stranded DNA, MW 27,670 g/mol, 5 mM), GTP and ATP to a final concentration of 5 μM, 0.5 mM and 0.5 mM respectively in a final volume of 10 μl. The reaction plates were then centrifuged at 1000 rpm for 1 minute and incubated at room temperature for 1 h. After 1 h of incubation, [^5Ns]-2′3′-cGAMP to a final concentration of 200 nM and 30 μL of 100% acetonitrile/0.175% of TFA were added to the reaction mixture. The plates were centrifuged at 1000 rpm for 1 minute before being sealed for 3 seconds at 170° C. using a ThermoScientific sealer (ALPS™ 50V) and an aluminum sealing cover (Pierce Seal, 4titude, Product Code: 4TI-0531).
# The concentration of cGAMP was measured on a LC-MS/MS system consisting of a THERMO Dionex Ultimate LC system with a high pressure pump, an autosampler, a column heating compartment (Reinach, Switzerland) and a SCIEX Triple Quad 5500 (Framingham, MA, USA) mass spectrometer for detection. The sample plates were centrifuged for 10 minutes at 2000 rpm. Up to three plates were placed in the autosampler for injection. An aliquot of 10 μL of each sample was injected on an XBridge BEH Amide 3.5 μm, 2.1×50 mm column (P/N 186004859) with an XBridge BEH Amide 5 μm 2.1×5 mm VanGuard Cartridge (P/N 186007760) pre-column (both WATERS, MA, USA) held at 40° C. An isocratic flow of 1.0 mL/min solvent (60% ACN, 8 mM ammonium acetate, 5 mM ammonium hydroxide, 0.04% acetic acid) was applied and sprayed into the ion source of the mass spectrometers. The MS parameters were optimized based on the properties of the compounds to be detected and run in positive multi-reaction mode (MRM) based on the mass transitions. LC and MS parameters were also optimized to allow for a sample-to-sample measuring time of approximately 75 sec and a run time of 8 hours per 384-well plate. All data were analyzed with Excel; and the dose response curves were generated using the auto fitting function of XLfit. The IC50 was determined by plotting the cGAMP concentration ratio (cGAMP divided by the internal standard [^15Ns]-2′3′-cGAMP) versus the concentration of compound.
# Sequence of human truncated cGAS enzyme (147-522 human cGAS) (Q8N884 147-522): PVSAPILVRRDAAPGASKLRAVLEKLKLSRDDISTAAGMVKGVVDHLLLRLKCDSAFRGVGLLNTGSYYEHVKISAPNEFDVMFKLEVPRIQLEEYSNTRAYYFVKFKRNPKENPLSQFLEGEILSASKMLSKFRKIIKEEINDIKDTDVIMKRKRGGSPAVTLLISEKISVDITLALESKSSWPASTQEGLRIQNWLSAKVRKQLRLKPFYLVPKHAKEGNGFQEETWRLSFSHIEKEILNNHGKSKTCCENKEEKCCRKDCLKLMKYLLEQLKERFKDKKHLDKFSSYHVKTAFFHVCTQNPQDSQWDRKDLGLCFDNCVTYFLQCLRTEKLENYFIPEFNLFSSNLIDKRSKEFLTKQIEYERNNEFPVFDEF
row,SMILES,IC50 [nM]
1,"COCCN(C)C(C)c1nnc(-c2c(-n3ccnc3)c3cc(OC)c(Cl)c(F)c3n2C)[nH]1 (centres unmarked) [Example 128, 1-(5-(6-chloro-7-fluoro-3-(1H-imidazol-1-yl)-5-methoxy-1-methyl-1H-indol-2-yl)-4H-1,2,4-triazol-3-yl)-N-(2-methoxyethyl)-N-methylethan-1-amine]",454
2,"N#Cc1c(Cl)ccc2c(-n3ccnc3)c(-c3nnc(C(F)(F)F)[nH]3)[nH]c12 [Example 110, 6-chloro-3-(1H-imidazol-1-yl)-2-(5-(trifluoromethyl)-4H-1,2,4-triazol-3-yl)-1H-indole-7-carbonitrile]",226
3,"COc1cc2c(-n3ccnc3)c(-c3nnc(C(C)N4CC5(COC5)C4)[nH]3)n(C)c2c(F)c1Cl (centres unmarked) [Example 130, 6-(1-(5-(6-chloro-7-fluoro-3-(1H-imidazol-1-yl)-5-methoxy-1-methyl-1H-indol-2-yl)-4H-1,2,4-triazol-3-yl)ethyl)-2-oxa-6-azaspiro[3.3]heptane]",268
4,"CNC(C)c1nnc(-c2c(-n3ccnc3)c3cc(OC)c(Cl)c(F)c3n2C)[nH]1 (centres unmarked) [Example 123, 1-(5-(6-chloro-7-fluoro-3-(1H-imidazol-1-yl)-5-methoxy-1-methyl-1H-indol-2-yl)-4H-1,2,4-triazol-3-yl)-N-methylethan-1-amine]",121
5,"COc1cc2c(-n3ccnc3)c(-c3nnc(C(C)N(C)C)[nH]3)n(C)c2c(F)c1Cl (centres unmarked) [Example 122, 1-(5-(6-chloro-7-fluoro-3-(1H-imidazol-1-yl)-5-methoxy-1-methyl-1H-indol-2-yl)-4H-1,2,4-triazol-3-yl)-N,N-dimethylethan-1-amine]",177
6,"COc1cc2c(-n3ccnc3)c(-c3nnc(C(OC)C(F)F)[nH]3)n(C)c2c(F)c1Cl (centres unmarked) [Example 99, 6-chloro-2-(5-(2,2-difluoro-1-methoxyethyl)-4H-1,2,4-triazol-3-yl)-7-fluoro-3-(1H-imidazol-1-yl)-5-methoxy-1-methyl-1H-indole]",64

# Same assay, conditions: reported for the potential mixture of co-existing tautomers and/or racemates
row,SMILES,IC50 [nM]
1,"COc1cc2c(-n3ccnc3)c(-c3nnc(C(F)(F)F)[nH]3)n(C)c2c(F)c1Cl [Example 47, 6-chloro-7-fluoro-3-(1H-imidazol-1-yl)-5-methoxy-1-methyl-2-(5-(trifluoromethyl)-4H-1,2,4-triazol-3-yl)-1H-indole]",121
2,"N#Cc1c(Cl)ccc2c(-c3cn[nH]c3)c(-c3nnc(C(F)(F)F)[nH]3)[nH]c12 [Example 19, 6-chloro-3-(1H-pyrazol-4-yl)-2-(5-(trifluoromethyl)-4H-1,2,4-triazol-3-yl)-1H-indole-7-carbonitrile]",150
3,"COc1cc2c(-c3cn[nH]c3)c(-c3nnc(F)[nH]3)n(C)c2c(F)c1Cl [Example 58, 6-chloro-7-fluoro-2-(5-fluoro-4H-1,2,4-triazol-3-yl)-5-methoxy-1-methyl-3-(1H-pyrazol-4-yl)-1H-indole]",30
4,"COCCc1nnc(-c2c(-n3ccnc3)c3cc(OC)c(Cl)c(F)c3n2C)[nH]1 [Example 52, 6-chloro-7-fluoro-3-(1H-imidazol-1-yl)-5-methoxy-2-(5-(2-methoxyethyl)-4H-1,2,4-triazol-3-yl)-1-methyl-1H-indole]",206
5,"NC(=O)c1nnc(-c2[nH]c3c(Cl)c(Cl)ccc3c2-c2cn[nH]c2)[nH]1 [Example 22, 5-(6,7-dichloro-3-(1H-pyrazol-4-yl)-1H-indol-2-yl)-4H-1,2,4-triazole-3-carboxamide]",30
6,"COc1cc2c(-n3ccnc3)c(-c3nnc(C(=O)N4CCC(O)CC4)[nH]3)n(C)c2c(F)c1Cl [Example 44, (5-(6-chloro-7-fluoro-3-(1H-imidazol-1-yl)-5-methoxy-1-methyl-1H-indol-2-yl)-4H-1,2,4-triazol-3-yl)(4-hydroxypiperidin-1-yl)methanone]",58
7,"COCC(F)(F)c1nnc(-c2c(-n3ccnc3)c3cc(OC)c(Cl)c(F)c3n2C)[nH]1 [Example 89, 6-chloro-2-(5-(1,1-difluoro-2-methoxyethyl)-4H-1,2,4-triazol-3-yl)-7-fluoro-3-(1H-imidazol-1-yl)-5-methoxy-1-methyl-1H-indole]",40
8,"CCOC(=O)c1nnc(-c2[nH]c3cc(Cl)c(OC)cc3c2-c2cn[nH]c2)[nH]1 [Example 28, ethyl 5-(6-chloro-5-methoxy-3-(1H-pyrazol-4-yl)-1H-indol-2-yl)-4H-1,2,4-triazole-3-carboxylate]",75

# The remaining lines, values ahead:
row,IC50 [nM],SMILES
1,3690,"FC(F)(F)c1nnc(-c2[nH]c3c(Cl)c(Cl)ccc3c2-c2cc[nH]n2)[nH]1 [Example 78, 6,7-dichloro-3-(1H-pyrazol-3-yl)-2-(5-(trifluoromethyl)-4H-1,2,4-triazol-3-yl)-1H-indole]"
2,218,"COC(=O)Cc1nnc(-c2[nH]c3c(Cl)c(Cl)ccc3c2-c2cn[nH]c2)[nH]1 [Example 29, methyl 2-(5-(6,7-dichloro-3-(1H-pyrazol-4-yl)-1H-indol-2-yl)-4H-1,2,4-triazol-3-yl)acetate]"
3,196,"Fc1ccc2c(-c3cn[nH]c3)c(-c3nnc(C(F)(F)F)[nH]3)[nH]c2c1F [Example 14, 6,7-difluoro-3-(1H-pyrazol-4-yl)-2-(5-(trifluoromethyl)-4H-1,2,4-triazol-3-yl)-1H-indole]"
4,188,"OCCc1nnc(-c2[nH]c3c(Cl)c(Cl)ccc3c2-c2cn[nH]c2)[nH]1 [Example 15, 2-(5-(6,7-dichloro-3-(1H-pyrazol-4-yl)-1H-indol-2-yl)-4H-1,2,4-triazol-3-yl)ethan-1-ol]"
5,136,"Clc1ccc2c(-c3cn[nH]c3)c(-c3nnc[nH]3)[nH]c2c1Cl [Example 38, 6,7-dichloro-3-(1H-pyrazol-4-yl)-2-(4H-1,2,4-triazol-3-yl)-1H-indole]"
6,109,"COc1cc2c(-n3ccnc3)c(-c3nnc(N4CC[C@@H](O)C4)[nH]3)n(C)c2c(F)c1Cl [Example 91, (R)-1-(5-(6-chloro-7-fluoro-3-(1H-imidazol-1-yl)-5-methoxy-1-methyl-1H-indol-2-yl)-4H-1,2,4-triazol-3-yl)pyrrolidin-3-ol]"
7,76,"COCc1nnc(-c2c(-n3ccnc3)c3cc(OC)c(Cl)c(C#N)c3n2C)[nH]1 [Example 54, 6-chloro-3-(1H-imidazol-1-yl)-5-methoxy-2-(5-(methoxymethyl)-4H-1,2,4-triazol-3-yl)-1-methyl-1H-indole-7-carbonitrile]"
8,72,"COc1cc2c(-n3ccnc3)c(-c3nnc(OCCO)[nH]3)n(C)c2c(F)c1Cl [Example 94, 2-((5-(6-chloro-7-fluoro-3-(1H-imidazol-1-yl)-5-methoxy-1-methyl-1H-indol-2-yl)-4H-1,2,4-triazol-3-yl)oxy)ethan-1-ol]"
9,69,"COc1cc2c(-c3cn[nH]c3)c(-c3nnc(C(F)(F)F)[nH]3)[nH]c2cc1Cl [Example 24, 6-chloro-5-methoxy-3-(1H-pyrazol-4-yl)-2-(5-(trifluoromethyl)-4H-1,2,4-triazol-3-yl)-1H-indole]"
10,63,"COC[C@H](O)c1nnc(-c2c(-n3ccnc3)c3cc(OC)c(Cl)c(F)c3n2C)[nH]1 [Example 84, (R)-1-(5-(6-chloro-7-fluoro-3-(1H-imidazol-1-yl)-5-methoxy-1-methyl-1H-indol-2-yl)-4H-1,2,4-triazol-3-yl)-2-methoxyethan-1-ol]"
11,56,"COc1cc2c(-n3ccnc3)c(-c3nnc(C(F)(F)CO)[nH]3)n(C)c2c(F)c1Cl [Example 95, 2-(5-(6-chloro-7-fluoro-3-(1H-imidazol-1-yl)-5-methoxy-1-methyl-1H-indol-2-yl)-4H-1,2,4-triazol-3-yl)-2,2-difluoroethan-1-ol]"
12,32,"COc1cc2c(-c3cn[nH]c3)c(-c3nnc(C(C)=O)[nH]3)n(C)c2c(F)c1Cl [Example 60, 1-(5-(6-chloro-7-fluoro-5-methoxy-1-methyl-3-(1H-pyrazol-4-yl)-1H-indol-2-yl)-4H-1,2,4-triazol-3-yl)ethan-1-one]"
